We go through six molecules from ChEMBL document CHEMBL4339231, “α,γ-Diketocarboxylic Acids and Their Esters Act as Carbonic Anhydrase IX and XII Selective Inhibitors” (ACS Med Chem Lett, 2019).

For one test, the target named is Carbonic anhydrase 1 (Homo sapiens, UniProt P00915). Description: Inhibition of human carbonic anhydrase 1 incubated for 15 mins by stopped flow CO2 hydrase assay.
For the next test, the target named is Carbonic anhydrase 2 (Homo sapiens, UniProt P00918). Description: Inhibition of human carbonic anhydrase 2 incubated for 15 mins by stopped flow CO2 hydrase assay.
For the next test, the target named is Carbonic anhydrase 9 (Homo sapiens, UniProt Q16790). Description: Inhibition of human carbonic anhydrase 9 incubated for 15 mins by stopped flow CO2 hydrase assay.
Test [1] relates to HOS. The test is described as follows: Cytotoxicity in human HOS cells assessed as reduction in cell viability at 12.5 to 100 uM incubated for 72 hrs by acid phosphatase assay. The class given is functional, cell-based.
Test [2] deals with MG-63. Description: Cytotoxicity in human MG63 cells assessed as reduction in cell viability at 12.5 to 100 uM incubated for 72 hrs by acid phosphatase assay. It counts as functional, cell-based.
Test [3] concerns MG-63. The test is described as follows: Cytotoxicity in human MG63 cells assessed as reduction in cell viability at 25 uM incubated for 72 hrs by acid phosphatase assay. It counts as functional.
The test system of test [4] is HOS. The test is described as follows: Induction of apoptosis in human HOS cells assessed as increase in caspase-7 activation at 25 uM incubated for 72 hrs by Caspase-GloR 3/7 assay. The class given is functional, cell-based.
The test system of test [5] is MG-63. Description: Induction of apoptosis in human MG63 cells assessed as increase in caspase-3 activation at 25 uM incubated for 72 hrs by Caspase-GloR 3/7 assay. It counts as functional, cell-based.
Test [6] concerns HOS. The test is described as follows: Cytotoxicity in human HOS cells assessed as reduction in cell viability at 25 uM incubated for 72 hrs by acid phosphatase assay. It counts as functional.
For test [7], the system named is MG-63. The test is described as follows: Antiproliferative activity against human MG63 cells assessed as reduction in cell viability incubated for 72 hrs by erythrosine B dye vital staining assay. The class given is functional, cell-based. Conditions: MG-63, 72 h.
For test [8], the system named is HOS. The test is described as follows: Antiproliferative activity against human HOS cells assessed as reduction in cell viability incubated for 72 hrs by erythrosine B dye vital staining assay. The class given is functional, cell-based.
The test system of test [9] is HOS. The test is described as follows: Induction of apoptosis in human HOS cells assessed as increase in caspase-3 activation at 25 uM incubated for 72 hrs by Caspase-GloR 3/7 assay. The class given is functional, cell-based.
Test [10] deals with MG-63. Description: Induction of apoptosis in human MG63 cells assessed as increase in caspase-7 activation at 25 uM incubated for 72 hrs by Caspase-GloR 3/7 assay. It counts as functional, cell-based.
Test [11] relates to MG-63. The test is described as follows: Induction of apoptosis in human MG63 cells assessed as increase in caspase-3 activation at 50 uM incubated for 72 hrs by Caspase-GloR 3/7 assay. It counts as functional, cell-based.
Test [12] relates to HOS. Description: Cytotoxicity in human HOS cells assessed as reduction in cell viability at 50 uM incubated for 72 hrs by acid phosphatase assay. It counts as functional.
Test [13] has as its system MG-63. The test is described as follows: Cytotoxicity in human MG63 cells assessed as reduction in cell viability at 50 uM incubated for 72 hrs by acid phosphatase assay. The class given is functional.
Test [14] concerns HOS. Description: Induction of apoptosis in human HOS cells assessed as increase in caspase-3 activation at 50 uM incubated for 72 hrs by Caspase-GloR 3/7 assay. It counts as functional, cell-based.
Test [15] has as its system MG-63. The test is described as follows: Induction of apoptosis in human MG63 cells assessed as increase in caspase-7 activation at 50 uM incubated for 72 hrs by Caspase-GloR 3/7 assay. The class given is functional, cell-based.
Test [16] deals with HOS. Description: Induction of apoptosis in human HOS cells assessed as increase in caspase-7 activation at 50 uM incubated for 72 hrs by Caspase-GloR 3/7 assay. It counts as functional, cell-based.

The structures appear in SMILES notation. Activity calls are given as the source filed them. The calls are words filed in the database; no cut-off is given here.

Carbonic anhydrase 1, sequence (P00915 whole entry): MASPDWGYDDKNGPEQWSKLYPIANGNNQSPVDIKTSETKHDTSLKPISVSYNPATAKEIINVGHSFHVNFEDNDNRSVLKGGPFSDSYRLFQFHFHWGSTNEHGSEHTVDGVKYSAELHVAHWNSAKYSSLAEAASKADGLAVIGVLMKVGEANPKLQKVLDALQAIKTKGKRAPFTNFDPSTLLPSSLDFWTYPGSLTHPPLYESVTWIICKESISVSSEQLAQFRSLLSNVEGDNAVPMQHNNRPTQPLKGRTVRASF

For `O=C(/C=C(\O)C(=O)O)/C=C/c1ccc(NC(=O)c2ccccc2)cc1`, the figures for the Ki on Carbonic anhydrase 1, on Carbonic anhydrase 2 and at Carbonic anhydrase 9 were more than 10 µM, 5.03 µM and 0.0125 µM, respectively.
On to `O=C(/C=C(\O)C(=O)O)/C=C/c1ccc(NC(=O)c2ccc3ccccc3c2)cc1`, for which the result in the test with HOS [1] and in the test with MG-63 [2] was inactive. The Ki on Carbonic anhydrase 1 is 8.98 µM; at Carbonic anhydrase 2, 2.08 µM; at Carbonic anhydrase 9 it was 0.0113 µM.
With `CCOC(=O)/C(O)=C/C(=O)/C=C/c1ccc(NC(=O)c2ccccc2)cc1`, the results for the inhibitory constant (Ki) on Carbonic anhydrase 1, on Carbonic anhydrase 2 and on Carbonic anhydrase 9 were 7.33 µM, more than 10 µM and 0.0902 µM, respectively.
For `O=C(/C=C(\O)C(=O)O)/C=C/c1ccc(NC(=O)c2cccc3ccccc23)cc1`, in that order: more than 10 µM, 2.58 µM and 0.0128 µM.
For `CCOC(=O)/C(O)=C/C(=O)/C=C/c1ccc(NC(=O)c2cccc3ccccc23)cc1`, the Activity entry with HOS [1] is “Dose-dependent effect”; in the test on MG-63 [3] it was 16.4%; in the test on MG-63 [2] it was “Dose-dependent effect”; with HOS [6] it was 19.7%. Moreover, the outcome in the test on HOS [4], in the test with MG-63 [5], in the test with HOS [9] and with MG-63 [10] was inactive. For the same molecule, the results for the IC50 with MG-63 [7] and in the test with HOS [8] were 14.7 µM and 15.6 µM, respectively. Besides, the Ki at Carbonic anhydrase 1 was more than 10 µM; on Carbonic anhydrase 2 it was 8.65 µM; on Carbonic anhydrase 9 it was 0.0379 µM.
With `CCOC(=O)/C(O)=C/C(=O)/C=C/c1ccc(NC(=O)c2ccc3ccccc3c2)cc1`, the Activity result was “Dose-dependent effect” in the test with HOS [1], 50% in the test with HOS [12], “Dose-dependent effect” with MG-63 [2] and 50% in the test on MG-63 [13]. Moreover, the result in the test with MG-63 [11], in the test on HOS [14], in the test with MG-63 [15] and with HOS [16] was inactive. Besides, the IC50 in the test with MG-63 [7] came to 45.8 µM; in the test on HOS [8], 19.2 µM. Moreover, the values for the inhibition constant Ki at Carbonic anhydrase 1, at Carbonic anhydrase 2 and at Carbonic anhydrase 9 were 6.18 µM, 9.44 µM and 0.0126 µM, respectively.

For orientation: Ki means a dissociation constant, usually derived from enzyme kinetics or from competition with a known ligand. Lower therefore signals a stronger hold on the target. By IC50 is commonly meant the point on the concentration scale where inhibition reaches its midpoint.
